Data set [1] has as its target T1, LRRK2 G2019S (Homo sapiens, UniProt Q5S007, G2019S).
T1 construct: purchased Invitrogen (Life Technologies Corporation)
Nature of the data set: LRRK2 G2019S kinase activity assay (LanthaScreen TR-FRET). The class given is biochemical. As to conditions: 250 pM LRRK2 G2019S, 1.3 mM ATP, 3 h at 30° C.; n≥2 tests. In outline: (§1)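 TR-FRET measured phosphorylation of fluorescein-ERM LRRKtide by human LRRK2 residues 970–2527, wild-type or G2019S, detected with a terbium anti-phospho-LRRKtide antibody. The 520/495 nm ratio was normalized to uninhibited and inhibitor controls. IC50 came from a Hill fit, log-averaged over independent experiments.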

Data set [2] addresses T2, LRRK2 WT (Homo sapiens, UniProt Q5S007).
T2 construct: comprises residue 970 to 2527 of the full length human wild-type LRRK2 kinase; purchased Invitrogen (Life Technologies Corporation)
Nature of the data set: LRRK2 wild-type kinase activity assay (LanthaScreen TR-FRET). The class given is biochemical. The note with it: 1 nM LRRK2 WT, 1.3 mM ATP, 3.5 h at 30° C.; n≥2 tests. In outline: as §1
(Time-resolved FRET reads energy transfer from a long-lived donor to a nearby acceptor.)

Data set [3] can be described thus: Hepatocyte intrinsic clearance assay. The class given is in vitro ADME, human. The note with it: human, pooled donor, cryopreserved hepatocytes, pH 7.4, 0.1 μM, 2 h at 37° C., 1×10^6 hepatocytes/mL; * measured on 3 separate occasions, ** on a single occasion. As to the method:
(§2) Test compounds (final concentration 0.1 μM, 0.05% organic) were incubated for 2 h at 37° C., with shaking, in supplemented Leibovitz L-15 media (pH7.4) containing commercially sourced, pooled donor, cryopreserved hepatocytes (final concentration 1×10^6 hepatocytes/m L). The CLint reactions (350 μL) were initiated by addition of test compound. Aliquots (25 μL) were taken at 1, 5, 10, 15, 30, 60, 90 and 120 minutes and then protein crashed with ice-cold acetonitrile containing internal standard (150 μL) then centrifuged (1960 g for 20 minutes at 4° C.). Supernatant was diluted (1:4) with deionized water then analyzed by liquid chromatography (LC)-tandem mass spectrometry (MS/MS). The intrinsic clearances (CLint) were calculated from the slope (k) of the linear regressions of percentages of compound remaining in incubation against incubation time, according to equations 2 and 3.

The nature of data set [4]: GSH adduct screening. The class given is in vitro ADME, human. The note with it: 1 μM, 3 h at 37° C., HLM 0.5 mg/mL, NADPH, with and without GSH. As to the method:
Test compounds (final concentration 1 μM, 0.25% organic) were incubated for 3 h at 37° C. in commercially sourced, pooled donor, human liver microsomes (HLM, final concentration 0.5 mg/mL) with and without addition of glutathione (GSH; final concentration […]). The metabolic reaction was initiated by addition of microsomal solution to the mixture of cofactor NADPH (final concentration 1 mM), test compound and GSH. After 3 h of incubation in a water bath at 37° C., the reaction was stopped by addition of 0.2% formic acid in acetonitrile, followed by mixing and centrifugation (16000 g for 5 minutes). Supernatant was diluted (1:1) with HPLC water then analyzed by liquid chromatography (LC)-quadrupole time-of-flight mass spectrometry (QTOF-MS). Accurate mass MS and MS/MS spectra from samples with GSH and without GSH, respectively, were compared to identify detectable GSH and/or cysteine related adducts.

In data set [5] the test system is pooled donor, cryopreserved hepatocytes. Nature of the data set: Hepatocyte intrinsic clearance assay. The class given is in vitro ADME, human. The note with it: 0.1 μM, 2 h at 37° C., 1×10^6 hepatocytes/mL; * measured on 3 separate occasions, ** on a single occasion. As to the method:
as §2

Data set [6] in a line: Rat B/P (brain disposition). It is filed as in vivo, male Sprague-Dawley rats. As to conditions: male, Sprague-Dawley; for concentration at 1 h / Kp uu at 1 h / Kp at 1 h: time point 1.0 h. As to the method:
Brain disposition was evaluated for each compound in male Sprague-Dawley rats (n=3, standard body weight). […] Isolated plasma and brain homogenates were extracted by standard protein precipitation in acetonitrile, containing internal standard, followed by LC-MS/MS analysis using an optimized analytical method. Concentrations of test compound in plasma and brain were quantified against matrix matched calibration standards. The total plasma and brain concentration data are presented in Table 7 alongside the calculated brain Kp (total brain concentration:total plasma concentration ratio).

Data set [7] in a line: Free fraction in plasma (equilibrium dialysis). The note with it: rat plasma, 1 μM, 5 h at 37° C. The class given is in vitro ADME, male Sprague-Dawley rat. As to the method:
The free fractions in male Sprague-Dawley rat or female Gottingen minipig plasma (fuplasma) and rat brain homogenate (fubrain) were determined by equilibrium dialysis using 96-well HTD-dialysis plates with dialysis membranes (molecular weight cut off 12-14 KDa). One side of the HTD-dialysis plate was loaded with matrix (plasma or brain homogenate) and the other side with buffer (100 mM sodium phosphate buffer, pH 7.4). Test compounds were dissolved in DMSO then spiked (5 μL of 0.2 mM) into blank (995 μL) plasma or diluted brain homogenate (1:4 ratio in phosphate buffer) giving a final nominal concentration 1 μM (≤0.5% DMSO). The matrices were loaded into respective chambers and equilibrated against phosphate buffer for 5 h at 37° C. (in a humidified air incubator with 5% CO2 with shaking). Samples from both chambers (buffer and plasma or brain homogenate) were aliquoted to fresh 96-well polypropylene plates then matrix matched using an equal volume of opposite blank matrix before extraction with cold solvent (3 volumes acetonitrile) containing an appropriate bioanalytical internal standard. After centrifugation (20 min, 3200 g, 4° C.) the supernatants were diluted with appropriate volumes of water and compound concentrations were quantified by LC/MS-MS against matrix matched calibration standards. The fuplasma and fubrain were calculated as a percent free according to equation 4 below.
Where [F] is the analyte concentration on the buffer (receiver) side of the membrane; [T] is the analyte concentration on the plasma or brain (donor) side of the membrane; [TO] is the analyte concentration in the plasma or brain sample at time zero; D is matrix dilution factor which is determined as 4 for brain matrix and 1 for plasma matrix in these assays.

[8] abbreviates: brain, oral gavage 10 mg/kg, mean ± stdev, n = 3, read-out: Total brain concentration.
Where [9] appears, read: brain/plasma, oral gavage 10 mg/kg, mean ± stdev, n = 3.
The mark [10] stands for this setting: plasma, oral gavage 10 mg/kg, mean ± stdev, n = 3, read-out: Total plasma concentration.

Results on 9 compounds are retold here after patent publication US11780851B2, “LRRK2 inhibitors” (H. Lundbeck A/S, priority 2021, dated 2023).

SMILES strings stand for the structures. Entries after “also recorded” stand apart in the source; their conditions may differ. Read-outs that look alike come from different tables or passages of the source.

As usually defined, the IC50 is the concentration that gives 50% inhibition. One may read the CLint scaled as the rate of metabolic loss divided by the concentration. Broadly, the Kp is the ratio of the level in a tissue or fluid to that in plasma or blood.

T2 sequence (Q5S007 970-2527): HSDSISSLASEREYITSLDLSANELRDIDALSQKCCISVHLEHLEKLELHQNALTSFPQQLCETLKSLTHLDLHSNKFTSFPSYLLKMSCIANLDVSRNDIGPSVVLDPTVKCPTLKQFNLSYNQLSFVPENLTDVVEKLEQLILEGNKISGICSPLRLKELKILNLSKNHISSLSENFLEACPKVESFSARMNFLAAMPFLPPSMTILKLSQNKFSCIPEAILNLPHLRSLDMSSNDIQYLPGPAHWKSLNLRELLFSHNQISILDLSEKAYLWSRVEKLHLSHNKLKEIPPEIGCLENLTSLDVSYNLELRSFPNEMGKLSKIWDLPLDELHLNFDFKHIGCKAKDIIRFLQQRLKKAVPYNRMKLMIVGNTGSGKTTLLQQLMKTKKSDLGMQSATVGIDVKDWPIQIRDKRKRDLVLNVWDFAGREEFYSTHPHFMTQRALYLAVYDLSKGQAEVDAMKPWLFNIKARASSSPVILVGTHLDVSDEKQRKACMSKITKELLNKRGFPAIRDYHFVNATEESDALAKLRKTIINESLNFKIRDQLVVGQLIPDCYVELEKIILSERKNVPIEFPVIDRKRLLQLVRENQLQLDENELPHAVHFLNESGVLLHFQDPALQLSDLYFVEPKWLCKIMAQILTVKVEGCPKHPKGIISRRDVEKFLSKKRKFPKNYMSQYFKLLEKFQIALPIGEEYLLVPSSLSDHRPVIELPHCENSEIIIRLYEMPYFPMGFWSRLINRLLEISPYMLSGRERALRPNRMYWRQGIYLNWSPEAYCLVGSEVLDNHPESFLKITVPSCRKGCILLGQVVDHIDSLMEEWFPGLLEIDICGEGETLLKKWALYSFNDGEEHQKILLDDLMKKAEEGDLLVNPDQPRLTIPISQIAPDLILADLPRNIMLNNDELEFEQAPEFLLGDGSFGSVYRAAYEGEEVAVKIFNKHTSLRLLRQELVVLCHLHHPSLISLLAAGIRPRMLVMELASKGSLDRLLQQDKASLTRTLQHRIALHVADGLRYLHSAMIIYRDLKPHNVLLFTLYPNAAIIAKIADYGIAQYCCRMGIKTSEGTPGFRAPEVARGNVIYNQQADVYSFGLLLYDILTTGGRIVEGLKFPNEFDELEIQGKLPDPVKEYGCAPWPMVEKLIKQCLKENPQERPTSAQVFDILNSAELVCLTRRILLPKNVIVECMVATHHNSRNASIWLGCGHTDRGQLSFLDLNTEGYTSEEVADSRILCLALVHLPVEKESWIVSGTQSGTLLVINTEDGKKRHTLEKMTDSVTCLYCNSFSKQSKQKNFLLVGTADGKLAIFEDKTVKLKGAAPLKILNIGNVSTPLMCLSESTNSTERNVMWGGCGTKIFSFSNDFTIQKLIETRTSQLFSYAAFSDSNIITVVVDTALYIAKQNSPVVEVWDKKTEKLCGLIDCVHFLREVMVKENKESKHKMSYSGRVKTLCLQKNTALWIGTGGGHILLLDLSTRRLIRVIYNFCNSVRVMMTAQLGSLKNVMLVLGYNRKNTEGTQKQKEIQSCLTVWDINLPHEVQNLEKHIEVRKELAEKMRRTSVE
T1 sequence (Q5S007 970-2527 G2019S): as the sequence (Q5S007 970-2527) above, with G1050S counted along it

Consider `[2H]C([2H])([2H])c1c2c(nn1[C@H]1CC[C@H](OC)CC1)OCCCn1nc(Cl)c3cnc(nc31)N2` [Example 50], for which the IC50 in data set [1] was 5.3 nM; in data set [2], 10 nM. Besides, in data set [3], the CLint scaled at 0.1 μM was under 4 mL/min/kg. The “Adduct detected in GSH supplemented HLMs” value in data set [4] is on record as “did not form GSH adduct; also recorded: None detected”.
Consider `[2H]C([2H])([2H])c1c2c(nn1[C@@H]1CCCOC1)OCCCn1nc(Cl)c3cnc(nc31)N2` (single isomer, unassigned) [Example 61, (R) or (S)-8-Chloro-3-(methyl-d3)-2-(tetrahydro-2H-pyran-3-yl)-2,4,12,13-tetrahydro-11H-5,7-(azenometheno)dipyrazolo[3,4-b:5′,1′-g][1]oxa[4,6,8]triazacycloundecine], for which the IC50 in data set [1] turned out to be 10 nM; in data set [2], 34 nM. Further, the “CLint” value in data set [5] was under 4 mL/min/kg.
The corresponding values for `[2H]C([2H])([2H])c1c2c(nn1[C@H]1CCCOCC1)OCCCn1nc(Cl)c3cnc(nc31)N2` (single isomer, unassigned) [Example 59, (−)-(R) or (S)-8-Chloro-3-(methyl-d3)-2-(oxepan-4-yl)-2,4,12,13-tetrahydro-11H-5,7-(azenometheno)dipyrazolo[3,4-b:5′,1′-g][1]oxa[4,6,8]triazacycloundecine] are 6.2 nM, 17 nM and 6.67 mL/min/kg.
For the compound `Cc1c2c(nn1[C@@H]1CCO[C@H](C)C1)OCCCn1nc(Cl)c3cnc(nc31)N2` (single isomer, unassigned) [Example 18], the results for the IC50 in data set [1] and in data set [2] were 3.6 nM and 11 nM, respectively. For the same compound, the CLint scaled at 0.1 μM in data set [3] was under 4 mL/min/kg. In addition, in data set [4], the “Adduct detected in GSH supplemented HLMs” value is given as “+GSH”. Moreover, the concentration at 1 h in data set [6] (setting [8]) was 897 ± 292 ng/g; in data set [6] (setting [10]), 636 ± 265 ng/mL. Also, the Kp uu at 1 h in data set [6] (brain/plasma, oral gavage 10 mg/kg, fubrain from brain homogenate) came to 0.35 ± 0.05. Besides, the Kp at 1 h in data set [6] (setting [9]) amounted to 1.47 ± 0.22. In data set [7], the “fuplasma (% free)” value came to 25.0 % free.
With `CO[C@H]1CC[C@H](n2nc3c(c2C)Nc2ncc4c(Cl)nn(c4n2)CCCO3)CC1` [Example 37, 8-Chloro-2-((1r,4r)-4-methoxycyclohexyl)-3-methyl-2,4,12,13-tetrahydro-11H-5,7-(azenometheno)dipyrazolo[3,4-b:5′,1′-g][1]oxa[4,6,8]triazacycloundecine], the values for the IC50 in data set [1] and in data set [2] were 3.7 nM and 8.5 nM, respectively. Also, in data set [3], the CLint scaled at 0.1 μM was under 4 mL/min/kg. In addition, the “Adduct detected in GSH supplemented HLMs” value in data set [4] is “+GSH”. The concentration at 0.5 h in data set [6] (brain, oral gavage 10 mg/kg, time point 0.5 h, mean ± stdev, n = 3, read-out: Total brain concentration) came to 683 ± 139 ng/g; in data set [6] (plasma, oral gavage 10 mg/kg, time point 0.5 h, mean ± stdev, n = 3, read-out: Total plasma concentration), 391 ± 96 ng/mL. In data set [6] (brain/plasma, oral gavage 10 mg/kg, time point 0.5 h, mean ± stdev, n = 3), this compound registered a Kp at 0.5 h of 1.87 ± 0.76. For the same compound, the Kp uu at 0.5 h in data set [6] (brain/plasma, po, 10 mg/kg, oral gavage 10 mg/kg, time point 0.5 h, fubrain from brain homogenate) is 0.47 ± 0.19. Moreover, the “fuplasma (% free)” value in data set [7] was 18.2 % free.
Compound `Cc1c2c(nn1C1CCOCC1)OCCCn1nc(Cl)c3cnc(nc31)N2` [Example 2, 8-Chloro-3-methyl-2-(tetrahydro-2H-pyran-4-yl)-2,4,12,13-tetrahydro-11H-5,7-(azenometheno)dipyrazolo[3,4-b:5′,1′-g][1]oxa[4,6,8]triazacycloundecine] gave a CLint scaled at 0.1 μM in data set [3] of 14.2 mL/min/kg. Besides, the “Adduct detected in GSH supplemented HLMs” value in data set [4] is “+GSH”.
On to `Cc1c2c(nn1[C@H]1CCCCOC1)OCCCn1nc(Cl)c3cnc(nc31)N2` (single isomer, unassigned) [Example 27, (−)-(R) or (S)-8-Chloro-3-methyl-2-(oxepan-3-yl)-2,4,12,13-tetrahydro-11H-5,7-(azenometheno)dipyrazolo[3,4-b:5′,1′-g][1]oxa[4,6,8]triazacycloundecine], for which the IC50 in data set [1] stood at 7.3 nM; in data set [2], 25 nM. The CLint scaled at 0.1 μM in data set [3] was 9.5 mL/min/kg. In addition, the concentration at 1 h in data set [6] (brain, oral gavage 5 mg/kg, mean ± stdev, n = 3, read-out: Total brain concentration) was 443 ± 50 ng/g; in data set [6] (plasma, oral gavage 5 mg/kg, mean ± stdev, n = 3, read-out: Total plasma concentration), 273 ± 36 ng/mL. This compound registered a Kp uu at 1 h in data set [6] (brain/plasma, oral gavage 5 mg/kg, fubrain from brain homogenate) of 0.52 ± 0.01. Besides, the Kp at 1 h in data set [6] (brain/plasma, oral gavage 5 mg/kg, mean ± stdev, n = 3) was determined as 1.63 ± 0.03. Further, in data set [7], the “fuplasma (% free)” value amounted to 19.9 % free.
Regarding `[2H]C([2H])([2H])c1c2c(nn1[C@H]1CCO[C@@H](C)C1)OCCCn1nc(Cl)c3cnc(nc31)N2` (single isomer, unassigned) [Example 51, (+)-8-Chloro-3-(methyl-d3)-2-((2R,4R) or (2S,4S)-2-methyltetrahydro-2H-pyran-4-yl)-2,4,12,13-tetrahydro-11H-5,7-(azenometheno)dipyrazolo[3,4-b:5′,1′-g][1]oxa[4,6,8]triazacycloundecine], the values for the IC50 in data set [1] and in data set [2] were 5.3 nM and 9 nM, respectively. Besides, the CLint scaled at 0.1 μM in data set [3] is under 4 mL/min/kg. For the same compound, in data set [4], the “Adduct detected in GSH supplemented HLMs” value is “+GSH”.
Turning to `CCc1c2c(nn1C1CCOCC1)OCCCn1nc(Cl)c3cnc(nc31)N2` [Example 17, 8-Chloro-3-ethyl-2-(tetrahydro-2H-pyran-4-yl)-2,4,12,13-tetrahydro-11H-5,7-(azenometheno)dipyrazolo[3,4-b:5′,1′-g][1]oxa[4,6,8]triazacycloundecine], the IC50 was 5.8 nM in data set [1] and 15 nM in data set [2]. Also, the CLint scaled at 0.1 μM in data set [3] was 5.67 mL/min/kg. In data set [4], the “Adduct detected in GSH supplemented HLMs” value is “did not form GSH adduct; also recorded: None detected”. The concentration at 1 h in data set [6] (setting [8]) was 1150 ± 59 ng/g; in data set [6] (setting [10]), 653 ± 52 ng/mL. Also, the Kp at 1 h in data set [6] (setting [9]) worked out at 1.76 ± 0.08. Moreover, the Kp uu at 1 h in data set [6] (brain/plasma, po, 10 mg/kg, oral gavage 10 mg/kg, fubrain from brain homogenate) was found to be 0.59 ± 0.03. In addition, the “fuplasma (% free)” value in data set [7] amounted to 27.5 % free.
